# Assay results: paper PMC5448077, “Development of an orally available inhibitor of CLK1 for skipping a mutated dystrophin exon in Duchenne muscular dystrophy” (Scientific Reports, 2017)
# What was measured:
# Assay in all cases: biochemical
# [1] = molecular target: ALK(L1196M) (Homo sapiens, UniProt Q9UM73, L1196M)
# In short: (§1)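 Reactions at room temperature in HEPES buffer (20 mM, pH 7.5, 0.01% Triton X-100, 2 mM DTT) lasted 1 or 5 h depending on kinase, with substrate peptide and ATP-metal. Phosphorylation read by electrophoretic mobility shift or IMAP polarization; kinase activity computed as P/(P + S).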
# [2] = molecular target: PIK3CA/PIK3R1 (Homo sapiens, UniProt P42336)
# In short: as §1
# [3] = molecular target: T1, PYK2 (Homo sapiens, UniProt Q14289)
# T1 construct: gene PTK2B
# In short: as §1
# [4] = molecular target: CSK (Homo sapiens, UniProt P41240)
# In short: as §1
# [5] = molecular target: KIT(T670I) (Homo sapiens, UniProt P10721, T670I)
# In short: as §1
# [6] = molecular target: T2, MST3 (Homo sapiens, UniProt Q9Y6E0)
# T2 construct: gene STK24
# In short: as §1
# [7] = molecular target: TYK2 (Homo sapiens, UniProt P29597)
# In short: as §1
# [8] = molecular target: DYRK1B (Homo sapiens, UniProt Q9Y463)
# In short: as §1
# [9] = molecular target: FGFR2 (Homo sapiens, UniProt P21802)
# In short: as §1
# [10] = molecular target: TNIK (Homo sapiens, UniProt Q9UKE5)
# In short: as §1
# [11] = molecular target: T3, CHK2 (Homo sapiens, UniProt O96017)
# T3 construct: gene CHEK2
# In short: as §1
# [12] = molecular target: T4, FYN(isoform a) (Homo sapiens, UniProt P06241)
# T4 construct: isoform a
# In short: as §1
# [13] = molecular target: IGF1R (Homo sapiens, UniProt P08069)
# In short: as §1
# [14] = molecular target: T5, CK2α1/β (Homo sapiens, UniProt P68400)
# T5 construct: gene CSNK2A1
# In short: as §1
# [15] = molecular target: HIPK2 (Homo sapiens, UniProt Q9H2X6)
# In short: as §1
# [16] = molecular target: T6, p38α (Homo sapiens, UniProt Q16539)
# T6 construct: gene MAPK14
# In short: as §1
# [17] = molecular target: NEK2 (Homo sapiens, UniProt P51955)
# In short: as §1
# [18] = molecular target: FGFR3 (Homo sapiens, UniProt P22607)
# In short: as §1
# [19] = molecular target: CDK9/CycT1 (Homo sapiens, UniProt P50750)
# In short: as §1
# [20] = molecular target: T7, RSK4 (Homo sapiens, UniProt Q9UK32)
# T7 construct: gene RPS6KA6
# In short: as §1
# [21] = molecular target: T8, MSK2 (Homo sapiens, UniProt O75676)
# T8 construct: gene RPS6KA4
# In short: as §1
# [22] = molecular target: PBK (Homo sapiens, UniProt Q96KB5)
# In short: as §1
# [23] = molecular target: T9, skMLCK (Homo sapiens, UniProt Q9H1R3)
# T9 construct: gene MYLK2
# In short: as §1
# [24] = molecular target: EGFR(L861Q) (Homo sapiens, UniProt P00533, L861Q)
# In short: as §1
# [25] = molecular target: T10, Erk1 (Homo sapiens, UniProt P27361)
# T10 construct: gene MAPK3
# In short: as §1
# [26] = molecular target: HIPK4 (Homo sapiens, UniProt Q8NE63)
# In short: as §1
# [27] = molecular target: T11, CK1γ1 (Homo sapiens, UniProt Q9HCP0)
# T11 construct: gene CSNK1G1
# In short: as §1
# [28] = molecular target: RET(S891A) (Homo sapiens, UniProt P07949, S891A)
# In short: as §1
# [29] = molecular target: FGFR3(K650M) (Homo sapiens, UniProt P22607, K650M)
# In short: as §1
# [30] = molecular target: SYK (Homo sapiens, UniProt P43405)
# In short: as §1
# [31] = molecular target: TNK1 (Homo sapiens, UniProt Q13470)
# In short: as §1
# DYRK1B, sequence (Q9Y463 whole entry): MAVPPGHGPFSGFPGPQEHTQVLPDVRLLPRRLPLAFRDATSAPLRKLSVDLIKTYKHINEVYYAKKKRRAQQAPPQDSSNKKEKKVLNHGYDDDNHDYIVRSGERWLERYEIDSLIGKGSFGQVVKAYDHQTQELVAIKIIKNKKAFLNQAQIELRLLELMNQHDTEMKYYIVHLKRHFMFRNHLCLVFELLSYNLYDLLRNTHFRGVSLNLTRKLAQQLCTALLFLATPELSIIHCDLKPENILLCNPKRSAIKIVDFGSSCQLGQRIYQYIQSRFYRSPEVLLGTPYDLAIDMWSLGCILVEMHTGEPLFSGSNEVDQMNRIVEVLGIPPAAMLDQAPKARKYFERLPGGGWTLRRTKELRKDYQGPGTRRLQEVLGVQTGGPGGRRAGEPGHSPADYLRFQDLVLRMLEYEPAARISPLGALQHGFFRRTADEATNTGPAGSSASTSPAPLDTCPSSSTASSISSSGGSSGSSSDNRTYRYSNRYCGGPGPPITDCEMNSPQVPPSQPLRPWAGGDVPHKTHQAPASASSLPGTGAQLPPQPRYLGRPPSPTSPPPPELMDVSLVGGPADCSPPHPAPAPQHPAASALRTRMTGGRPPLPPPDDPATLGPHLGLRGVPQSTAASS
# T1 sequence (Q14289 whole entry): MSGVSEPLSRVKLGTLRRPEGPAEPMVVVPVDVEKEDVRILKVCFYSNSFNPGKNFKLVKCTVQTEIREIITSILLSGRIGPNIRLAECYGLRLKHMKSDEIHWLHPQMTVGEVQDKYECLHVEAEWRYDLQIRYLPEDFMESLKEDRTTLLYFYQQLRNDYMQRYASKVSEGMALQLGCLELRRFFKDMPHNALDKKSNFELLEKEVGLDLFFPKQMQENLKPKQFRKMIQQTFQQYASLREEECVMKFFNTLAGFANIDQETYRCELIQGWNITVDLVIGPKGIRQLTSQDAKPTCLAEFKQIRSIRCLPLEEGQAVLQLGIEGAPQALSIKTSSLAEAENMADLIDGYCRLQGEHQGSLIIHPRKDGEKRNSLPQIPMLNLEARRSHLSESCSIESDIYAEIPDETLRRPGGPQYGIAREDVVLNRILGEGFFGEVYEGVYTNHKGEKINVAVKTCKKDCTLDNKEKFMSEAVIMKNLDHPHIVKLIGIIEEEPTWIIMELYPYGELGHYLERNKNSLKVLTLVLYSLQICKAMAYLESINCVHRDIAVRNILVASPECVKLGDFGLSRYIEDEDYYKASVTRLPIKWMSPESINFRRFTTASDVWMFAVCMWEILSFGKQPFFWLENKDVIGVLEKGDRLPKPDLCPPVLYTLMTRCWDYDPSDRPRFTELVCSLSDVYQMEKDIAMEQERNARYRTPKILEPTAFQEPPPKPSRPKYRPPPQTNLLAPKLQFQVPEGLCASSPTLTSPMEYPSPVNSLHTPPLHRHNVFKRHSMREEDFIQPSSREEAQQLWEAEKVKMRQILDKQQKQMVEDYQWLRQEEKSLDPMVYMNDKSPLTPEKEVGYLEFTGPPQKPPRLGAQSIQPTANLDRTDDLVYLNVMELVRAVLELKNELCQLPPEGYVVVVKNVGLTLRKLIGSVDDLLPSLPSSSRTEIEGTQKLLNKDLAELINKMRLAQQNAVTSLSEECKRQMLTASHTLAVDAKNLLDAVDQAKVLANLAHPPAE
# RET(S891A), sequence (P07949 whole entry S891A): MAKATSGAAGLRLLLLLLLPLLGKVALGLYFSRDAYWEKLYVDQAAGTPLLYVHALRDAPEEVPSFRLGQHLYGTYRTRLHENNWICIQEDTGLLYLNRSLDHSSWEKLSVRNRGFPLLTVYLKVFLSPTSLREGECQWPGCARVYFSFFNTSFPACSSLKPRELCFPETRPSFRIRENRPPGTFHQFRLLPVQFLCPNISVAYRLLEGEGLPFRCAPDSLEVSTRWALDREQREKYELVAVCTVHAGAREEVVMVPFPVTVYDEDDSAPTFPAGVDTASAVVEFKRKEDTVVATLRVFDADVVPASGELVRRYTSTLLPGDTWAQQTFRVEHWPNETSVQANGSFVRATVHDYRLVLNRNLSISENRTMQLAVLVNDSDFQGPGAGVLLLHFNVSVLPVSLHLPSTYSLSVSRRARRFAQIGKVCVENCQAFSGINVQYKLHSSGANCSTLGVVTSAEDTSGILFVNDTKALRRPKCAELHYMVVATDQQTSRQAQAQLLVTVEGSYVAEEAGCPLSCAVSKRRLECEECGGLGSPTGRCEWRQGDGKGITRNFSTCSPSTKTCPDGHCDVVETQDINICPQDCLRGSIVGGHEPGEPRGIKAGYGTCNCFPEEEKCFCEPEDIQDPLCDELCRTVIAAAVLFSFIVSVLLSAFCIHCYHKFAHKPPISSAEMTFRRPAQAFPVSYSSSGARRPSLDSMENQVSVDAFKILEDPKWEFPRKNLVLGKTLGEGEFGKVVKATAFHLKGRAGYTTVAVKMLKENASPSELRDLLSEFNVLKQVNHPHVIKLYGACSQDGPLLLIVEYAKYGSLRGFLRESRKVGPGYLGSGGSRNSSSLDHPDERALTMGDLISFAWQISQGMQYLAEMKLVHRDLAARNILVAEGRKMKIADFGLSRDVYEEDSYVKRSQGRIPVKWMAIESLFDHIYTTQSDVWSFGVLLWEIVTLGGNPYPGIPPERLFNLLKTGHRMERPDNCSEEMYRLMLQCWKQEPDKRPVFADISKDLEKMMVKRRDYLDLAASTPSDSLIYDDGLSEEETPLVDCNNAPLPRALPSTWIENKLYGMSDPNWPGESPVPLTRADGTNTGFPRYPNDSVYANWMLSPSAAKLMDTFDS
# PBK, sequence (Q96KB5 whole entry): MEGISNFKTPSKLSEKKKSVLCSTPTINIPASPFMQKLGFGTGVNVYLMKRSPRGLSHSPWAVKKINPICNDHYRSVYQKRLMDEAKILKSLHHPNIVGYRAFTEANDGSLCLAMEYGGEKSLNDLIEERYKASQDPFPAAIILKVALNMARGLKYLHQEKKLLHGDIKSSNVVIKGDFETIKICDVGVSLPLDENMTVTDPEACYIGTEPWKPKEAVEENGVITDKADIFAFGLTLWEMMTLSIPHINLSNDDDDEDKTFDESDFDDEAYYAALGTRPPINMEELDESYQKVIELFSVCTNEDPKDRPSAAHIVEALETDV
# FGFR3(K650M), sequence (P22607 whole entry K650M): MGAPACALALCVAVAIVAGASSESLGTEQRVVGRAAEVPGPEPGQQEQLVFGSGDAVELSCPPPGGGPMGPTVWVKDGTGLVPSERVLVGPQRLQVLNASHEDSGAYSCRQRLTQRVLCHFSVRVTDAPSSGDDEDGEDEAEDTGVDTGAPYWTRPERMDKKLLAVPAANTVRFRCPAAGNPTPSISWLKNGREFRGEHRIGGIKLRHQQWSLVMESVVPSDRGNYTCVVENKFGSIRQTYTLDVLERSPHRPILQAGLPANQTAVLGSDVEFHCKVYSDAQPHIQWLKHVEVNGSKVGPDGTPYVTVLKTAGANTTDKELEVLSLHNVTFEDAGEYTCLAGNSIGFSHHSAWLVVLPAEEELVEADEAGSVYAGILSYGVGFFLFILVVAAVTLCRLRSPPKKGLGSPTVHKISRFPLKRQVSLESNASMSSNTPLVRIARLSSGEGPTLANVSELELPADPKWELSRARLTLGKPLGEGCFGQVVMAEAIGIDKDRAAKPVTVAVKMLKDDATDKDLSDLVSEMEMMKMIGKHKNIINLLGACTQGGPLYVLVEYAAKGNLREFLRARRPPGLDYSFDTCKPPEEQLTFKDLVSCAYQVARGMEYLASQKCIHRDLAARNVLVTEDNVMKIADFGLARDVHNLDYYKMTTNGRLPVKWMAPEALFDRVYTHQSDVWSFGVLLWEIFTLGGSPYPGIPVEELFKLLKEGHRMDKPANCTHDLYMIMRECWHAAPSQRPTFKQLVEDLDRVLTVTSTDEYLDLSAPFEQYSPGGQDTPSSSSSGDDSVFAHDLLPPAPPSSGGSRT
# T5 sequence (P68400 whole entry): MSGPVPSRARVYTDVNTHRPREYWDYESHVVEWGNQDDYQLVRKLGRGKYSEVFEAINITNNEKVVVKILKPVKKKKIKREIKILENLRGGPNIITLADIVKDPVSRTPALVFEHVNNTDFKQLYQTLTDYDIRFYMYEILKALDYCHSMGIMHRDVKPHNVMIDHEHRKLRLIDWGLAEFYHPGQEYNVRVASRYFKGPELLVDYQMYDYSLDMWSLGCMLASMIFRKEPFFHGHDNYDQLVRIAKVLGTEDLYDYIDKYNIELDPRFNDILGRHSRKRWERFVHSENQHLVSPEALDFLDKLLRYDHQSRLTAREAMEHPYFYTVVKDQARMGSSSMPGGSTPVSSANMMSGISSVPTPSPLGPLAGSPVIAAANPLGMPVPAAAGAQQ
# T5 sequence (P67870 whole entry partner): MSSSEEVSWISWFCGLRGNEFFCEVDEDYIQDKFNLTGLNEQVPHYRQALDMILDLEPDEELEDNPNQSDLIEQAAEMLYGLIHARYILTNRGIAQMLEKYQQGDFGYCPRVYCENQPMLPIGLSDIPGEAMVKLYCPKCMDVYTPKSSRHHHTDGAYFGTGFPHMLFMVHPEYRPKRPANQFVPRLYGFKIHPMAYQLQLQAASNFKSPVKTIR
# NEK2, sequence (P51955 whole entry): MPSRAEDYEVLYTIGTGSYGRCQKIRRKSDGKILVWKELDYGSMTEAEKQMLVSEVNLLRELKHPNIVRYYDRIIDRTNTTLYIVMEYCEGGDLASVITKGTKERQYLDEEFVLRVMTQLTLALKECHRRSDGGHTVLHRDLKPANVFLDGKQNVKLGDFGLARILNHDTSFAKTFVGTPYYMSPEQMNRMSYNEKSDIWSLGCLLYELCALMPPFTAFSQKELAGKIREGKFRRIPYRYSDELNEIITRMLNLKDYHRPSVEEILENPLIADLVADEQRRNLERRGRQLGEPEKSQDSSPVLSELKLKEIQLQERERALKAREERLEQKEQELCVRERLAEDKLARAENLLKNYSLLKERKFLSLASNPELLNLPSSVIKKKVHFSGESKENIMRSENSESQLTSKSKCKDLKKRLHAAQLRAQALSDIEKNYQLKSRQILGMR
# FGFR3, sequence (P22607 whole entry): as the sequence (P22607 whole entry K650M) above, with M650K counted along it
structure (smiles),measurement,setting,value
"c1cc(-c2ccc3[nH]ncc3c2)ccn1 [TG693, 5-(4-pyridinyl)-1H-indazole]",inhibition at 1 µM,[1],2.6%
same,inhibition at 1 µM,[2],36.8%
same,inhibition at 1 µM,[3],3.3%
same,inhibition at 1 µM,[4],-1.2%
same,inhibition at 1 µM,[5],-0.7%
same,inhibition at 1 µM,[6],1%
same,inhibition at 1 µM,[7],0.6%
same,inhibition at 1 µM,[8],76.1%
same,inhibition at 1 µM,[9],1.7%
same,inhibition at 1 µM,[10],48.6%
same,inhibition at 1 µM,[11],-1%
same,inhibition at 1 µM,[12],-0.7%
same,inhibition at 1 µM,[13],3.3%
same,inhibition at 1 µM,[14],3.5%
same,inhibition at 1 µM,[15],-2%
same,inhibition at 1 µM,[16],-0.1%
same,inhibition at 1 µM,[17],-11.9%
same,inhibition at 1 µM,[18],-0.6%
same,inhibition at 1 µM,[19],57.8%
same,inhibition at 1 µM,[20],-6.5%
same,inhibition at 1 µM,[21],-5.1%
same,inhibition at 1 µM,[22],-3.5%
same,inhibition at 1 µM,[23],0.9%
same,inhibition at 1 µM,[24],-5.4%
same,inhibition at 1 µM,[25],1.4%
same,inhibition at 1 µM,[26],7.6%
same,inhibition at 1 µM,[27],5%
same,inhibition at 1 µM,[28],-18%
same,inhibition at 1 µM,[29],7.8%
same,inhibition at 1 µM,[30],-60.9%
same,inhibition at 1 µM,[31],3.8%
